“And” between values parts separate entries of the source, which are not always exact repeats. Equal entries are not always repeated.
How the values were obtained:
adenosine receptors = test: Regional vascular resistance by radiolabelled microspheres 24 hours after sepsis induction; type: in vivo, rat; settings: septic rats
Experimental: Systemic vascular responses were examined 24 hours after induction of sepsis in the presence or absence of adenosine receptor blockade in septic and non-septic rats using radiolabelled microspheres. For these experiments, the surgical procedure involving vascular access was modified to include a catheter in the left ventricle of the heart (via the carotid artery), and a catheter in the tail artery (Intramedic PE-50, Baxter) to permit reference blood withdrawal and blood pressure monitoring. Regional blood flows were determined using radiolabelled microspheres. The microspheres ([…] New England Nuclear, Boston), labeled with one of four isotopes (^46Sc, ^85Sr, ^95Nb, ^141Ce), were mixed in 0.9% normal saline with 0.01 % Tween-80 added to prevent aggregation. The microspheres were adjusted to provide a minimum of 400 microspheres per tissue sample, and represented approximately 100,000-250,000 spheres per injection. The specific Isotopes and their order of injection were randomized in each experiment. with each injection representing a volume of 0.4 ml/injectate. The microspheres were sonicated for a minimum of 30 minutes, and vortexed vigorously for at least 30 seconds prior to injection. A reference withdrawal sample was taken at 0.33 ml/min from the tail artery catheter using a mechanical pump (Harvard Model 22). The reference withdrawal was started 10 seconds prior to injecting the isotopes, and continued for 150 seconds. […] Wet weights were obtained and all tissues were counted in a gamma spectrophotometer (Beckman 9000). Gamma activity in the injectate vials was counted prior to the experiments. Actual injected amounts for each isotope were calculated by subtracting any isotope counts remaining in the vials, syringes, and catheters used for injection. Cardiac output (CO) was determined by dividing the total injectate counts for any given isotope by the counts in the reference sample and multiplying by the fixed withdrawal rate of the reference sample. The results for cardiac output are expressed as ml/min. Tissue counts attributed to each isotope were determined after subtracting the overlap of energy spectra from higher energy isotopes (Compton back-scatter). Individual tissue blood flows were determined by dividing the counts obtained in the tissue by the reference withdrawal counts and multiplying by the reference withdrawal rate. Tissue blood flows were then normalized to wet weight was calculated by adding the individual tissue blood flows of the stomach, small intestine, cecum, colon, pancreas, hepatic artery and spleen, and dividing by the liver weight. Regional tissue vascular resistances were calculated from regional blood flows and arterial blood pressure, according to the equation: […]

xanthine oxidase = biological target: T1, xanthine oxidase (Rattus norvegicus, UniProt P22985); settings: 10 nM, hypoxic perfused rat hearts; cited from earlier work
T1 construct: host or cells: isolated perfused rat heart
T1 sequence (P22985 whole entry, the tested form may be a part): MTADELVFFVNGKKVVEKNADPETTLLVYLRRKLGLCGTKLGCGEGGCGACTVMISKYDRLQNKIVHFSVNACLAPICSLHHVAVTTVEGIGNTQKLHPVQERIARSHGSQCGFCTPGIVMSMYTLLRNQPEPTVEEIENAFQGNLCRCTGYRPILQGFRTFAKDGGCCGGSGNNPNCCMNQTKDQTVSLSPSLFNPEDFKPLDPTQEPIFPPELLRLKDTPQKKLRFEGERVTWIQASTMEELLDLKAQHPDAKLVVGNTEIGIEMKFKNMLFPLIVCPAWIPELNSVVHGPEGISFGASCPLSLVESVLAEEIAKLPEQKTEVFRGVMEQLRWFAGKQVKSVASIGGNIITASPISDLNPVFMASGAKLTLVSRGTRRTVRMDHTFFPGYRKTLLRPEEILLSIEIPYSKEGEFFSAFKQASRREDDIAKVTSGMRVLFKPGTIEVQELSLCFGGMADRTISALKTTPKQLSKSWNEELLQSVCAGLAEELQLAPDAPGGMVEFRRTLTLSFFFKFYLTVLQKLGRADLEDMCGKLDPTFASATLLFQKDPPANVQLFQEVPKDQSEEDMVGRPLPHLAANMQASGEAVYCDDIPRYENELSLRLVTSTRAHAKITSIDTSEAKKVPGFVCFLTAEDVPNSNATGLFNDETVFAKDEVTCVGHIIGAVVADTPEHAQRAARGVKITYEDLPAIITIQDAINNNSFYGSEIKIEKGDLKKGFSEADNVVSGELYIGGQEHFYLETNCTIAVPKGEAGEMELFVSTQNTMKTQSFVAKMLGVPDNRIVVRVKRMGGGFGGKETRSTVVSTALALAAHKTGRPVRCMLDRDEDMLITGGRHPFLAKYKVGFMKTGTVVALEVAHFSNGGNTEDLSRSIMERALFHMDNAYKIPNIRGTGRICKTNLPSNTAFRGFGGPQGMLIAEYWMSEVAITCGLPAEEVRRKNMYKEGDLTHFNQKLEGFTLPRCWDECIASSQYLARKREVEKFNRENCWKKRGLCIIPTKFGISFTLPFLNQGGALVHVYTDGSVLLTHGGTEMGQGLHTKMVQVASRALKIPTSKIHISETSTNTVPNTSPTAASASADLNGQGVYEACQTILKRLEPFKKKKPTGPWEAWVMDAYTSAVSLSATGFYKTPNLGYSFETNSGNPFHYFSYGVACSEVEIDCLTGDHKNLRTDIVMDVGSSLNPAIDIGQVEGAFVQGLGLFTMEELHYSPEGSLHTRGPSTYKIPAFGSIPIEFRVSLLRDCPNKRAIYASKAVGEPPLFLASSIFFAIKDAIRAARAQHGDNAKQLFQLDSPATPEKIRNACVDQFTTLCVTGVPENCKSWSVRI

IL-6 = test: Serum IL-6 in fluid-resuscitated sepsis-induced SIRS; type: in vivo, rat; settings: 24 hours after SIRS induction, 1 mg/kg pentostatin 2 hours after induction
Experimental: (§1) SIRS was induced secondary to sepsis by ip introduction of […] cecal matter in 5 ml/kg D5W.
(§2) It is increasingly apparent that feedback between pro and anti-inflammatory processes is critically important to the clinical outcome from SIRS, as taught by Bone (Bone, 1996). The balance between complementary pro-and anti-inflammatory molecules is typified by TNF α and its soluble receptors, sTNF types I and II. The ability of ADA inhibition to restore balance to these complimentary molecules in the SIRS responses was tested with a more clinically relevant addition of fluid resuscitated sepsis. […] Further evidence of a complex, modulatory mode of action is indicated by IL-10 concentrations in the liver and spleen.

TNF-α, IL-1 beta, IL-10 = test: Cytokine concentrations after ip E coli endotoxin (LPS), pentostatin dose response (FIG. 16); type: in vivo, rat; settings: response to 2 mg/kg LPS (endotoxin), 2 hours after ip injection
Text: Lower doses than this were unable to consistently suppress TNF-α and IL-1 beta with concommittant stimulation of the anti-inflammatory cytokine, IL-10.

TNF-α [1] = test: Serum TNF-α in fluid-resuscitated sepsis-induced SIRS; type: in vivo, rat; settings: 24 hours after SIRS induction, 1 mg/kg pentostatin 2 hours after induction
Experimental: as §1, §2
Serum and tissue tumor necrosis factor-α (TNF-α) concentrations were determined by enzyme-linked immunosorbant assay. Samples of serum, liver, and spleen were collected, rapidly weighed, and frozen in liquid nitrogen. On the day of assay, tissues are added to labeled tubes containing lysis buffer (volume=10 ml/gram wt. with 1:10 dilution) and kept on ice. […] Optical density of each well at […] was determined within 30 minutes using a Biotek Instruments EL312e microtiter plate reader. Concentrations of TNF-α were calculated from the standard curves.

SIRS rats = test: Survival up to 6 days after SIRS induction secondary to sepsis (FIG. 15); type: in vivo, rat; settings: 1 mg/kg
Experimental: All rats received 50 ml/kg 0.9% normal saline iv 2 hours after SIRS induction.
Inhibition of up to 100% can be maintained for no more than 3 consecutive days, after which ADA activity should be allowed to return to at least 50% of baseline values before another dose of the inhibitor can be given. […] One-two hours after administration of a starting dose of the inhibitor, adenosine deaminase activity can be measured in various bodily fluids, tissues, dialysates, or cells by spectrophotometric methods according to the method of Vielh and Castellazzi, or other appropriate measurement that provides information regarding ADA enzyme activity. Measurement of adenosine deaminase activity can also be used to monitor the return of ADA activity after therapeutic inhibition for the treatment or prevention of SIRS.

sTNFRI or p55 = test: Circulating soluble TNF receptor I in fluid-resuscitated sepsis-induced SIRS; type: in vivo, rat; settings: 24 hours after SIRS induction; 1 mg/kg pentostatin 2 hours after induction
Experimental: as §1, §2

[2] = test system: lipid peroxidation (TBARS); test: Thiobarbituric acid reactive substances (TBARS) in jejunum of septic rats; settings: 24 hours, versus saline (No Rx)
sTNFRII or p75 = test: Circulating soluble TNF receptor II in fluid-resuscitated sepsis-induced SIRS; type: in vivo, rat; settings: 24 hours after SIRS induction; 1 mg/kg pentostatin 2 hours after induction
Experimental: as §1, §2

TNF-α [3] = test: Serum TNF-α by ELISA in rats with chronic peritoneal sepsis (200 mg/kg cecal slurry ip); type: in vivo, rat; settings: septic rats
Experimental: (§3) Studies were conducted to determine if manipulation of adenosine-mediated events would result in alterations in the TNF-α response in this model. At the time of sepsis induction, rats were treated in one of four ways. One group received only 0.9% normal saline as a vehicle control (No Rx; n=6). […] The third group received the adenosine deaminase inhibitor, erythro-9-(2-hydroxy-3-nonyl)adenine (EHNA; 1 μmole/kg+1 μmole/kg/hr; iv; n=3). A fourth group received the adenosine receptor antagonist 8-sulfophenyltheophylline (SPT; 400 μg/kg/8 hours; n=5).
(§4) Sepsis was induced under pentobarbital anesthesia (50 mg/kg) in each rat by intraperitoneal (ip) injection of 200 mg/kg rat cecal contents mixed as a slurry in 5% dextrose in water (D5W). […] Non-septic controls received an equivalent volume ip injection of D5W. Polyethylene catheters (Intramedic PE-50, Baxter) were inserted into the right internal jugular vein and right carotid artery. The jugular catheter was used for venous access (drug infusions; volume replacement, etc). The carotid catheter was used to obtain arterial blood samples, and to monitor arterial blood pressure and heart rate. The catheters were secured in their respective vessels, tunneled subcutaneously to exit in the interscapular region, and filled with heparinized saline (50 units/ml 0.9% normal saline). Incisions were closed in layers using 3-0 silk. Rats were allowed to recover from anesthetic and provided food and water ad libitum,
Serum and tissue tumor necrosis factor-α (TNF-α) concentrations were determined by enzyme-linked immunosorbant assay. Samples of serum, liver, and spleen were collected, rapidly weighed, and frozen in liquid nitrogen. On the day of assay, tissues are added to labeled tubes containing lysis buffer (volume=10 ml/gram wt. with 1:10 dilution) and kept on ice. The lysis buffer is 20 mM Tris (pH 7.4) containing […] phenylmethylsulfonylflouride (PMSF), […] leupeptin, 0.7 g/ml pepstatin, and 2.0 g/ml aprotinin to inhibit proteases. Samples were immediately homogenized using five 3 see bursts, washing grinding pistol (3×) between samples with phosphate buffered saline. Samples are then centrifuged for 20 min at 2200 RPM, 4° C. The supernatant was removed and used for TNF-α measurements. Briefly, each microplate well contained 50 μl of assay diluent. To each well, 50 μl of standard, control, or serum/homogenate supernatant sample were added and mixed on an orbital plate shaker. Plates were incubated at room temperature for 2 hours. Each well was then aspirated and washed with wash buffer 4 times. After final aspiration of wash buffer, 100 μl of rat TNF-α conjugate was added to each well. Wells were then covered and incubated for 2 hours at room temperature. At the end of the incubation, the aspiration/wash procedure was repeated 4 times, after which 100 μl of stabilized chromogen solution was added to each well. Next, plates were incubated for 45 minutes at room temperature in a dark area. After this final incubation period, 100 μl stopping solution was added to each well. Optical density of each well at […] was determined within 30 minutes using a Biotek Instruments EL312e microtiter plate reader. Concentrations of TNF-α were calculated from the standard curves.
At the time of sepsis induction, rats were treated in one of three ways. One group received only 0.9% normal saline as a vehicle control (VEH, n=6, where n is the number of rats). […] A third group received the adenosine receptor antagonist, 8-sulfophenyltheo-phylline (SPT; 400 μg/kg/8 h; n=5). Serum TNF-α (pg/ml) was determined at 4 and 24 hours after sepsis induction by ELISA.
Male SD rats (350-400 g) were made septic by IP introduction of a 200 mg/kg cecal slurry. […] TNF-α (pg/ml) was determined at 4 and 24 hours after sepsis induction by ELISA.

septic rats [4] = test: Survival of septic rats to day 3; type: in vivo, rat; settings: pentostatin 5 mg/kg/12 h; 8-SPT 400 μg/kg/8 h; 3 days post-sepsis
Experimental: as §3
as §4, with “The catheters were secured in their respective vessels, tunneled subcutaneously to exit in the interscapular region, and filled with heparinized saline (50 units/ml 0.9% normal saline). Incisions were closed in layers using 3-0 silk. Rats were allowed to recover from anesthetic and provided food and water ad libitum,” left out
(§5) At the time of sepsis induction, rats were treated in one of three ways. […] Serum TNF-α (pg/ml) was determined at 4 and 24 hours after sepsis induction by ELISA.

septic rats [5] = test: Capillary leakage: examination of peritoneal cavity and bowel of septic rats; type: in vivo, rat
septic rats [6] = test: Blood pressure and heart rate in septic rats; settings: chronic treatment
Experimental: as §3
as §4, with “The catheters were secured in their respective vessels, tunneled subcutaneously to exit in the interscapular region, and filled with heparinized saline (50 units/ml 0.9% normal saline). Incisions were closed in layers using 3-0 silk. Rats were allowed to recover from anesthetic and provided food and water ad libitum,” left out
as §5

IL-10 = IL-10 in serum, liver and spleen in fluid-resuscitated SIRS; type: in vivo, rat; settings: pentostatin treatment
Experimental: as §1, §2

Q: What does the source list for Cn1c(=O)c2[nH]c(-c3ccccc3)nc2n(C)c1=O [8-PTH, 8-phenyltheophylline]?
A: Brain (cerebral) vascular resistance (adenosine receptors): caused increases; Skeletal muscle vascular resistance (adenosine receptors): caused increases; Total hepato-splanchnic vascular resistance (adenosine receptors): caused increases

Q: With Oc1ncnc2[nH]ncc12 [Allopurinol] as the molecule, how does the Uric acid production (xanthine oxidase) read?
A: Its Uric acid production is “below detectable levels”.

Q: Which “Serum IL-6” value (IL-6) does the source give for OC[C@H]1O[C@@H](n2cnc3c2NC=NC[C@H]3O)C[C@@H]1O [pentostatin, (R)-3-(2-deoxy-beta-D-erythropentofuranosyl)-3,6,7,8-tetrahydro-imidazo[4,5-d]-[1,3] diazepin-8-ol] here?
A: The value was 5525 ± 1435 pg/mL.

Q: And the “Dose with maximal effect on modulating cytokine concentrations” value (TNF-α, IL-1 beta, IL-10)?
A: The value was 1 mg/kg.

Q: And the “Serum TNF-α” value (TNF-α [1])?
A: The value was 20.3 ± 14.8 pg/mL.

Q: What about the “Mortality in SIRS model” value (SIRS rats) of the same molecule?
A: The value was “effective in reducing mortality”.

Q: And the “Circulating sTNFRI (p55)” value (sTNFRI or p55)?
A: Its value is 4624 ± 404 pg/mL.

Q: And the “Jejunum tissue TBARS during sepsis” value [2]?
A: The value was “diminution of tissue TBARS”.

Q: What about the “Circulating sTNFRII (p75)” value (sTNFRII or p75) of the same molecule?
A: The value was 16525 ± 1226 pg/mL.

Q: And the “Effect on serum TNF-α response to sepsis at 4 hours” value (TNF-α [3]; 4 hours, versus saline-treated septic group)?
A: The value was “attenuation of this response”.

Q: And the “Effect on serum TNF-α response to sepsis at 24 hours” value (TNF-α [3]; 24 hours, versus saline-treated septic group)?
A: Its value is “attenuation of this response”.

Q: And the “Serum TNF-α at 4 hours after sepsis induction” value (TNF-α [3]; treated at time of sepsis induction, 4 hours)?
A: Its value is 592 ± 62 pg/mL.

Q: What about the “Serum TNF-α at 24 hours after sepsis induction” value (TNF-α [3]; treated at time of sepsis induction, 24 hours) of the same molecule?
A: The value was 671 ± 175 pg/mL.

Q: And the “Septic rats surviving to day 3” value (septic rats [4])?
A: The value was 4 of the 5 and 4 of 5.

Q: And the Capillary leakage (septic rats [5])?
A: Its Capillary leakage is “amelioration of capillary leakage”.

Q: What about the Small bowel hemorrhage (septic rats [5]) of the same molecule?
A: The Small bowel hemorrhage was “little to no evidence of small bowel hemorrhage”.

Q: What about the “Volume of fluid in the peritoneal cavity” value (septic rats [5]; untreated 2-3 ml) of the same molecule?
A: The value was 0 to 1 mL.

Q: And the “Blood pressures or heart rates versus saline-treated septic rats” value (septic rats [6])?
A: Its value is “neither the groups treated with pentostatin nor the groups treated with 8-SPT were blood pressures or heart rates significantly different”.

Q: What about the “Serum concentrations of IL-10” value (IL-10; FIG. 14(A)) of the same molecule?
A: Its value is “unaffected”.

Q: And the “IL-10 concentrations in the liver and spleen” value (IL-10; FIG. 14(B) and 14(C))?
A: Its value is “elevated”.
